Target: T1, sodium-proton exchanger of subtype 3 (NHE3) (Homo sapiens, UniProt P48764)
T1 construct: expressed in transfected cells
T1 sequence (P48764 26-834): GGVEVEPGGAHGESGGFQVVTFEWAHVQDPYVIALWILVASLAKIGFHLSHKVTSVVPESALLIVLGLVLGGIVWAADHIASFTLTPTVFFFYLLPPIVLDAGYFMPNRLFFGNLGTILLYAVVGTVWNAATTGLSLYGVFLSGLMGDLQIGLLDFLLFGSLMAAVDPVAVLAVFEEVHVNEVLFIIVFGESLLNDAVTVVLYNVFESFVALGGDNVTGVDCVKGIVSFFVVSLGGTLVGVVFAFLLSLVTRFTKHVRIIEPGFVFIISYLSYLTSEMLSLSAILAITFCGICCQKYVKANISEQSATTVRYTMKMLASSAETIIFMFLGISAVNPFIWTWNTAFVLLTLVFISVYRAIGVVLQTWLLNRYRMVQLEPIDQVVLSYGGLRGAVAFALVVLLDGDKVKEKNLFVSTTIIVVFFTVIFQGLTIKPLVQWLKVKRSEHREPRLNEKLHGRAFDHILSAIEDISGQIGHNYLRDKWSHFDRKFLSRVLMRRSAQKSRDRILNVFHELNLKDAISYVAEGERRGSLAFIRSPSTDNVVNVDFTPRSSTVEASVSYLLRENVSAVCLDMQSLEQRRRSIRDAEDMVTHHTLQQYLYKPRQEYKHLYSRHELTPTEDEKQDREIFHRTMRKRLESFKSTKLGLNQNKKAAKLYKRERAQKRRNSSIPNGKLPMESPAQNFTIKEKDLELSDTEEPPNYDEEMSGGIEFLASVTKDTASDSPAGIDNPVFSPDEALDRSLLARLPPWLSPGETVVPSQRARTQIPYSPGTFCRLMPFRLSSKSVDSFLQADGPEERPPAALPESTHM
Test: Recovery of intracellular pH (pHi) after acidification in LAP1 cells stably expressing NHE3 (BCECF fluorescence, FLIPR)
Assay type: cell-based
Settings: LAP1 cells stably expressing NHE3; pH recovery after acidification; range 1 is % inhibition at 10 μM; read-out: Activity range (inhibitory effect on NHE3)

Structure (SMILES)	IC50 [nM]	inhibition at 10 µM [%]
NS(=O)(=O)c1ccc(OC2c3ccccc3CC2N2CC[C@@H](N3CCCC3)C2)cc1 (mixture of isomers) [Example 463, 4-(rac-trans-(1,2)-(R)-2-[1,3′]Bipyrrolidinyl-1′-ylindan-1-yloxy)benzenesulfonamide]	1000 to 10000	–
c1ccc2c(c1)C[C@@H](N1C[C@H]3CNC[C@H]3C1)[C@@H]2Oc1ccc(N2CCNCC2)cc1 (racemic) [Example 17, 2-[rac-trans-(1,2)-1-(4-piperazin-1-ylphenoxy)indan-2-yl]octahydropyrrolo[3,4-c]pyrrole]	1000 to 10000	–
CCN(CC)[C@@H]1Cc2ccccc2[C@H]1Oc1cccc(NC(N)=O)c1 (racemic) [Example 212, [3-(rac-trans-(1,2)-2-diethylaminoindan-1-yloxy)phenyl]-urea]	1000 to 10000	–
O=C1COCC(=O)N1c1ccc(O[C@H]2c3cc(Cl)cc(Cl)c3C[C@@H]2N2CC[C@@H](O)C2)c(F)c1 [Example 560, 4-{4-[(1S,2S)-4,6-dichloro-2-((R)-3-hydroxypyrrolidin-1-yl)indan-1-yloxy]-3-fluorophenyl}morpholine-3,5-dione]	< 1000	–
FC(F)(F)c1cnccc1O[C@H]1c2ccccc2C[C@@H]1CN1CCCC1 (racemic) [Example 462, 4-(2-pyrrolidin-1-ylmethylindan-1-yloxy)-3-trifluoromethylpyridine]	–	20 to 50
N#Cc1ccc(O[C@@H]2c3ccccc3C[C@H]2N2C[C@H]3CNC[C@H]3C2)c(Cl)c1 (racemic) [Example 445, 3-chloro-4-[rac-trans-(1,2)-2-(hexahydropyrrolo[3,4-c]pyrrol-2-yl)indan-1-yloxy]benzonitrile]	< 1000	–
CN1CCCN([C@H]2Cc3c(Cl)cc(Cl)cc3[C@@H]2Oc2ccc(C#N)cc2F)CC1 [Example 556, 4-[trans-(1S,2S)-4,6-dichloro-2-(4-methyl-[1,4]diazepan-1-yl)indan-1-yloxy]-3-fluorobenzonitrile]	< 1000	–
NS(=O)(=O)c1ccc(O[C@H]2c3cc(Cl)cc(Cl)c3C[C@@H]2N2CCS(=O)(=O)CC2)cc1 [Example 483, 4-[(1S,2S)-4,6-dichloro-2-(1,1-dioxo-1lambda6-thiomorpholin-4-yl)indan-1-yloxy]benzenesulfonamide]	< 1000	–
Cc1nc(C)c(-c2ccc(O[C@H]3c4cc(Cl)cc(Cl)c4C[C@@H]3N3CC[C@@H](O)C3)cc2)s1 [Example 125, (R)-1-{trans-(1S,2S)-4,6-dichloro-1-[4-(2,4-dimethyl-thiazol-5-yl)phenoxy]indan-2-yl}pyrrolidin-3-ol]	–	20 to 50
COCCc1ccc(O[C@@H]2c3ccccc3C[C@H]2N2CCC[C@@H](N)C2)cc1 (racemic) [Example 116, (R)-1-{rac-trans-(1,2)-1-[4-(2-methoxyethyl)phenoxy]indan-2-yl}piperidin-3-ylamine]	1000 to 10000	–

Second part, the molecule after the results:

IC50 [nM]	inhibition at 10 µM [%]	Structure (SMILES)
< 1000	–	NC(=O)c1ccc(O[C@@H]2c3ccccc3C[C@H]2N2CCC[C@@H](N)C2)cc1 (racemic) [Example 524, 4-[rac-trans-(1,2)-2-((R)-3-aminopiperidin-1-yl)indan-1-yloxy]benzamide]
–	20 to 50	CS(=O)(=O)c1ccccc1O[C@H]1c2ccccc2CC[C@@H]1N1CCC[C@H](N)C1 (racemic) [Example 156, (S)-1-[rac-trans-(1,2)-1-(2-methanesulfonylphenoxy)-1,2,3,4-tetrahydronaphthalen-2-yl]piperidin-3-ylamine]
< 1000	–	NC(=O)c1cc(Cl)ccc1O[C@H]1c2ccccc2CC[C@@H]1N1CCC[C@H](N)C1 (racemic) [Example 370, 2-[rac-trans-(1,2)-2-((S)-3-aminopiperidin-1-yl)-1,2,3,4-tetrahydronaphthalen-1-yloxy]-5-chlorobenzamide]
1000 to 10000	–	N[C@H]1CCCN([C@@H]2Cc3ccccc3[C@H]2Oc2ccc(Br)cc2-c2cc[nH]n2)C1 (racemic) [Example 204, (S)-1-{rac-trans-(1,2)-1-[4-bromo-2-(1H-pyrazol-3-yl)phenoxy]indan-2-yl}piperidin-3-ylamine]
